This note sets out measurements from PMC10518717, “High-Throughput Screening and Proteomic Characterization of Compounds Targeting Myeloid-Derived Suppressor Cells” (Molecular & Cellular Proteomics : MCP, 2023).

Where only a bound is given, the exact number is not on record here.

In one experiment the test system is A594 cells. Nature of the experiment: CellROX-based detection of ROS levels. The experiment is classed as cell-based. The settings on record: 48 h treatment (compound 2 7.8 μM, N-acetyl-cysteine 300 μM), then 200 μM tert-butyl hydroperoxide 2 h; compared to compound 3 10 μM. As for the experimental part: A594 cells were maintained in Fluorobrite DMEM (Thermo Fisher Scientific) supplemented with GlutaMAX (Thermo Fisher Scientific) and 10% fetal bovine serum (PAN Biotech). Cells were seeded onto a 24-well microplate (Ibidi) and treated with DMSO, 7.8 μM compound 2 (3x EC50), 10 μM compound 3, or 300 μM N-acetyl-cysteine for 48 h. After the treatment, cells were incubated with 200 μM tert-butyl hydroperoxide (Sigma) for 2 h to stimulate ROS production. Then, cells were stained with CellROX deep red (Thermo Fisher Scientific) following the manufacturer’s guidelines. CellROX deep red signal was measured on a Leica DMI 6000 B epifluorescent microscope with a Cy5 filter set. Mean signal intensity per cell was determined from >100 cells per condition from three independent treatments.
For the CellROX assay, three independent treatments were conducted. From each, the mean signal intensity per cell was determined for >100 cells per condition. The statistical significance was calculated by one-way ANOVA followed by a post hoc Tukey’s multiple comparisons test using GraphPad Prism (v.8.3.0).

The next experiment concerns human PMN-MDSC. Nature of the experiment: Human PMN-MDSC assay (PMN-MDSC/CD8+ T cell/DC coculture, IFNγ HTRF). The class given is cell-based. The settings on record: 10 μM. From the text:
CD34+ cells were isolated from fresh human blood from healthy donors, obtained from the Health Services unit of the Healthcare Business of Merck KGaA, Darmstadt, Germany. First, peripheral blood mononuclear cells (PBMC) were isolated via density centrifugation, and then the target cells were isolated via magnetic bead labeling using the EasySep Human CD34 Positive Selection Kit II (Stemcell Technologies #17856). After isolation, the CD34+ cells were cultivated in cultivation medium (StemSpan SFEM II (Stemcell Technologies #09655) + 10% (1×) StemSpan CD34+ Expansion (Stemcell Technologies #02691)) for 10 to 12 days. At that point, the media was exchanged for fresh […] medium (Gibco #31870), supplemented with 10% FCS, 2 mM L-glutamine, 100 U/ml penicillin/streptomycin, 1 mM sodium-pyruvate, 1 mM non-essential amino acids, 50 μM ß-mercaptoethanol, and 100 ng/ml human G-CSF (PeproTech, AF-300-23), and the cells were incubated for 10 days in order to derive human PMN-MDSC.
Monocytes were isolated from fresh human blood from healthy donors, obtained from Health Services unit of the Healthcare Business of Merck KGaA, Darmstadt, Germany. […]
PMN-MDSC and DC were differentiated as described above. […] At that point, the supernatant was transferred and IFNγ was measured using a human INFγ HTRF kit (Cisbio #62[…]) following standard assay protocol provided by the manufacturer. The data was analyzed using Genedata software (GeneData Inc, https://www.genedata.com/) with 0% defined by the DMSO-treated wells and 100% effect defined by the wells without PMN-MDSC. […]
After confirming the physiological and pharmacological suitability of the NUP-MDSC model, we developed a high-throughput screen for the identification of potential MDSC modulators (Fig. 4A and supplemental Fig. S3). […] After 72 h, T cell activity was assessed by recording T cell proliferation and IFN-γ secretion. […] Compounds were declared hits if reversing the suppression effect of NUP-MDSC on T cells with ≥50% in either readout resulting in 392 hit compounds (Fig. 4B). […]

Turning to `CCOC(=O)c1nnn(-c2nn3nnnc3c3ccccc23)c1C` [compound 2], in the experiment with A594 cells, the “CellROX Deep Red fluorescence (amount of ROS in a cell)” value is “decreased significantly”. Besides, the entries for the “% effect on IFNγ secretion” value in the experiment on human PMN-MDSC (mild effect in 4 of 23 donor combinations) and in the experiment with human PMN-MDSC (strong effect in 5 of 23 donor combinations) were less than 40% and greater than 40%, respectively. Moreover, the “activity on IFNγ secretion” value in the experiment on human PMN-MDSC (some donors of 23 donor combinations) is listed as “no activity”.
